Results reported in paper PMC3513558 (European journal of medicinal chemistry, 2012).
“Also recorded” adds a separate entry of the source.

Target: intracellular HCV NS5B RdRp activity in BHK-NS5B-FRLuc reporter cells (Hepatitis C virus genotype 1b, UniProt P26663)
Assay: BHK-NS5B-FRLuc reporter assay, intracellular NS5B RdRp activity
Assay type: cell-based
Conditions: 100 µM, 42 hours, RLuc/FLuc vs DMSO

intracellular HCV NS5B RdRp activity in BHK-NS5B-FRLuc reporter cells, sequence (P26663 2420-3010): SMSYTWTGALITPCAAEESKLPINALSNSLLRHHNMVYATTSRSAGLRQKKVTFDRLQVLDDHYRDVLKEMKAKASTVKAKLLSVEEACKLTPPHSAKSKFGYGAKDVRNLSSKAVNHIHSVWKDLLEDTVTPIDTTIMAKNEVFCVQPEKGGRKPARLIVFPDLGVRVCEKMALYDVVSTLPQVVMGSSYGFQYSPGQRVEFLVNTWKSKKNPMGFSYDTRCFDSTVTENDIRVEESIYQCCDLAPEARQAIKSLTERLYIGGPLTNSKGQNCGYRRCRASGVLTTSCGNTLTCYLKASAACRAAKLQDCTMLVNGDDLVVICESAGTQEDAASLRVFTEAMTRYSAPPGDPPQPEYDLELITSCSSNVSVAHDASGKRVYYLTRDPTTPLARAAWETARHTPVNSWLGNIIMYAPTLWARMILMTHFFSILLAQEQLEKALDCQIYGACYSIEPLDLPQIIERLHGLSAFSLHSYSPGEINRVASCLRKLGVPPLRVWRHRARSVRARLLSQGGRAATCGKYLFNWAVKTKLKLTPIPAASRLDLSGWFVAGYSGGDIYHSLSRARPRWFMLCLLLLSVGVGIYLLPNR

## Cc1cc(O)c(C(c2ccc(Cl)c(Cl)c2)c2c(O)cc(C)oc2=O)c(=O)o1 [Compound 8, 3,3'-[(3,4-Dichlorophenyl)methylene]bis(4-hydroxy-6-methyl-2H-pyran-2-one)]
  % Inhibition of intracellular NS5B RdRp activity: did not inhibit; also recorded: No inhibition
